Data taken from ChEMBL document CHEMBL1759998, “Discovery and synthesis of novel 3-phenylcoumarin derivatives as antidepressant agents” (Bioorg Med Chem Lett, 2011).
Activity calls are given as the source filed them. The rule behind the calls is not given here.

Legend:
[1] = Solubility of the compound; format: physicochemical
Mus musculus [2] = experiment: Neurotoxicity in Swiss albino mouse assessed as deffect in motor coordination at 1 mg/kg, ip measured for 2 mins by rotarod test; format: toxicity, organism-based; design: dose 1 mg/kg, route intraperitoneal; details: in vivo
Mus musculus [3] = experiment: Antidepressant activity in Swiss albino mouse assessed as decrease in immobility duration at 0.5 mg/kg, ip administered 30 mins prior to test measured after 30 mins by tail suspension test (reference value: 79.9%); format: functional; design: scale not given: the % may be the effect or the level left; details: route intraperitoneal
Mus musculus [4] = experiment: Antidepressant activity in Swiss albino mouse assessed as decrease in immobility time at 0.25 mg/kg, ip measured for 6 mins by forced swim test; format: functional, organism-based; design: dose 0.25 mg/kg
Mus musculus [5] = experiment: Antidepressant activity in Swiss albino mouse assessed as decrease in immobility time at 0.5 mg/kg, ip measured for 6 mins by forced swim test; format: functional, organism-based; design: dose 0.5 mg/kg
Mus musculus [6] = experiment: Antidepressant activity in Swiss albino mouse assessed as decrease in immobility time at 30 mg/kg, ip measured for 6 mins by forced swim test; format: functional, organism-based; design: dose 30 mg/kg
Mus musculus [7] = experiment: Antidepressant activity in Swiss albino mouse assessed as decrease in immobility duration at 30 mg/kg, ip administered 30 mins prior to test measured after 30 mins by tail suspension test (reference value: 79.9%); format: functional; design: scale not given: the % may be the effect or the level left; details: route intraperitoneal

With `COc1ccccc1-c1cc2cc(C=O)cc(C)c2oc1=O` the solubility [1] was “Insoluble”.
With `COc1ccc(-c2cc3cc(C)c4ccccc4c3oc2=O)cc1` the Activity (Mus musculus [2]) was “Non-toxic”, the Activity (Mus musculus [3]) was 49.9% and the Activity (Mus musculus [4]) was “Active”. For the same compound, the Activity (Mus musculus [5]) was “Active”.
In the case of `COc1ccc(-c2cc3cc(C=O)cc(C)c3oc2=O)c(OC)c1OC`, the Activity (Mus musculus [2]) is reported as “Non-toxic”, the Activity (Mus musculus [3]) is reported as 47.3% and the Activity (Mus musculus [5]) is reported as “Active”.
For `CN(C)CCCN1c2ccccc2CCc2ccccc21` [IMIPRAMINE], the Activity (Mus musculus [6]) was “Active” and the Activity (Mus musculus [7]) was 20.6%.
With `COc1ccc(-c2cc3cc(C)c4ccccc4c3oc2=O)cc1OC` the solubility [1] was “Insoluble”.
For `COc1ccc(-c2cc3cc(C=O)cc(C)c3oc2=O)cc1`, the Activity (Mus musculus [3]) was 78.1%.
In the case of `CCC(C)c1cc(C=O)cc2cc(-c3ccc(OC)c(OC)c3)c(=O)oc12` (stereo not given), the Activity (Mus musculus [3]) is reported as 72.5%.
For `COc1ccc(-c2cc3cc(C=O)cc(C)c3oc2=O)cc1OC`, the Activity (Mus musculus [2]) was “Non-toxic”, the Activity (Mus musculus [3]) was 39.1% and the Activity (Mus musculus [4]) was “Active”. The Activity (Mus musculus [5]) was “Active”.
`CCC(C)c1cc(C=O)cc2cc(-c3cccc(OC)c3)c(=O)oc12` (stereo not given) gave an Activity (Mus musculus [3]) of 70.6%.
Compound `COc1ccc(-c2cc3cc(C)c4ccccc4c3oc2=O)c(OC)c1OC` has an Activity (Mus musculus [3]) of 63.6%.
Work on `CCC(C)c1cc(C=O)cc2cc(-c3ccc(OC)cc3)c(=O)oc12` (stereo not given) yielded an Activity (Mus musculus [3]) of 71.4%.
